{
  "source": "patent US11229633B2",
  "about": "“Arimoclomol formulation” (Orphazyme A/S, priority 2014, dated 2022)",
  "key": {"[1]": {"test": "Stability at conventional extrusion temperature", "assay_type": "physicochemical", "conditions": "100-200° C."}, "OATP1B1": {"target": "T1, OATP1B1 (Homo sapiens, UniProt Q9Y6L6)", "T1 sequence (Q9Y6L6 1-691)": "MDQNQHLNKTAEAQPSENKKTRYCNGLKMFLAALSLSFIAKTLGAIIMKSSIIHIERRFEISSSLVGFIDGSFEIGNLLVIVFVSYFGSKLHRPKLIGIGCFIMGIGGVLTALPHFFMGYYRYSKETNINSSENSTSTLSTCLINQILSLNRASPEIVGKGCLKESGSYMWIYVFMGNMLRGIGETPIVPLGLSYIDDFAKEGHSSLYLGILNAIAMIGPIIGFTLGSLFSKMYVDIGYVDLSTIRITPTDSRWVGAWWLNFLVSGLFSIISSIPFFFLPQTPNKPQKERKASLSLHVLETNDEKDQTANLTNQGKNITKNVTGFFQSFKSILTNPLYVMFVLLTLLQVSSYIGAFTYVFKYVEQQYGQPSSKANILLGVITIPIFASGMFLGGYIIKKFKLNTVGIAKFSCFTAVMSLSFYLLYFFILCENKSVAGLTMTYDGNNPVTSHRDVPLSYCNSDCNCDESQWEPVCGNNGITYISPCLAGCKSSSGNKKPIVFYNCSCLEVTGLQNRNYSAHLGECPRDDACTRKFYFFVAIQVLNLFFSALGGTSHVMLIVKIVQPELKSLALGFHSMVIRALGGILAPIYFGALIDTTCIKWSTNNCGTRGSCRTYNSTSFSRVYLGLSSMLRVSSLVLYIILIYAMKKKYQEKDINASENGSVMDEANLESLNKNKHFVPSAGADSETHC", "test": "Uptake transporter inhibition assay, OATP1B1", "assay_type": "in vitro ADME", "set-up": "expressed in transfected cells; host or cells: HEK293 (protocol UPT-HEK293-OATP1B1-E217βG; control: mock-transfected HEK293 FT); key to maximum inhibition: NIO: No interaction observed", "conditions": "for maximum inhibition: 0.3-300 μM", "experimental": "(§1) Uptake experiments were performed using CHO, MDCKII, or HEK293 cells stably expressing the respective uptake transporters.\n(§2) Cells were cultured at 37±1° C. in an atmosphere of 95:5 air:CO2 and were plated onto standard 96-well tissue culture plates at the cell number described in table 4.\n(§3) Before the experiment, the medium was removed and the cells were washed twice with 100 μl of HK buffer at pH 7.4 (prepared from Sigma chemicals, Sigma-Aldrich, St Louis, Mo.). Uptake experiments were carried out at 37±1° C. in 50 μl of HK buffer (pH 7.4) containing the probe substrate and the TA or vehicle control (water).\n(§4) After the experiment, cells were washed twice with ice cold, 100 μl of HK buffer and lysed with 50 μl of 0.1 M NaOH (1 mM CaCl2) in 5% SDS in the case of OATP1B3). Fluo-3 transport (OATP1B3) was determined by measuring fluorescence using 485 nm and 520 nm as the excitation and emission wavelengths, respectively. Radiolabelled probe substrate transport was determined by measuring an aliquot (35 μl) from each well for liquid scintillation counting.\n(§5) Uptake of the probe substrate in control cells provided background activity values for all data points. Incubation without TA or reference inhibitor (solvent only) provided 100% activity values. A reference inhibitor served as positive control for inhibition.\n(§6) The amount of translocated probe substrate was determined for each well in cpm or RFU. Relative activities were calculated from the equation:\n(§7) [formula] A: amount of translocated substrate in the presence of TA in transfected cells B: amount of translocated substrate in the presence of TA in control cells C: amount of translocated substrate in the presence of solvent in transfected cells D: amount of translocated substrate in the presence of solvent in control cells Calculation of Fold Accumulation Values\n(§8) In uptake transporter inhibition assays, the IC50 (μM) was calculated, where applicable. […]"}, "human OAT1": {"target": "T2, human OAT1 (Homo sapiens, UniProt Q4U2R8)", "T2 construct": "expressed in transfected cells; host or cells: CHO (protocol UPT-CHO-OAT1-Tenofovir; control: parental CHO-K1)", "T2 sequence (Q4U2R8 1-563)": "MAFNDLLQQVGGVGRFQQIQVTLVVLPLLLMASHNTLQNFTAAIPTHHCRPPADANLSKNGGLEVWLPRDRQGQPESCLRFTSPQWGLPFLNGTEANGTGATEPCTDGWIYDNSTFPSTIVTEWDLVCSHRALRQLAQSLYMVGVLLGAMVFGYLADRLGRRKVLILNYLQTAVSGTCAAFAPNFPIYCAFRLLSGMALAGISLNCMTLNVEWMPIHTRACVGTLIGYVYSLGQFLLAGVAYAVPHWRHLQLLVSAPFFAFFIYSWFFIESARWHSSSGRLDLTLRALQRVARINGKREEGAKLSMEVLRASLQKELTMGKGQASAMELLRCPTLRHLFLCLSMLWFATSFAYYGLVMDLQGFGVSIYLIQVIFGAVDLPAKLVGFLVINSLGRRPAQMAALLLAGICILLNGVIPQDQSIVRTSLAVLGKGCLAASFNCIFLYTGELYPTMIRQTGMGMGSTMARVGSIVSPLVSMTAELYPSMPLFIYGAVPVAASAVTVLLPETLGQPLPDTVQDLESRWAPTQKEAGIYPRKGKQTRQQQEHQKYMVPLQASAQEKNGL", "test": "Uptake transporter inhibition assay, OAT1", "assay_type": "in vitro ADME", "set-up": "key to maximum inhibition: NIO: No interaction observed", "conditions": "for maximum inhibition: 0.3-300 μM", "experimental": "as §1, §2, §3, §4, §5, §6, §7, §8"}},
  "note": "“Also recorded” adds a separate entry of the source.",
  "data": [
    {"smiles": "[O-][n+]1cccc(C(Cl)=NOCC(O)CN2CCCCC2)c1", "note": "(stereo not shown) [Arimoclomol, N-[2-hydroxy-3-(1-piperidinyl)-propoxy]-pyridine-1-oxide-3-carboximidoyl chloride]", "values": [
      {"measurement": "Stability at conventional extrusion temperature", "setting": "[1]", "result": "not stable"},
      {"measurement": "maximum inhibition", "setting": "OATP1B1; Table 2", "result": "NIO"},
      {"measurement": "maximum inhibition", "setting": "OATP1B1; Table 5", "result": "NIO"},
      {"measurement": "Influence on OATP1B1-mediated probe substrate accumulation (in words)", "setting": "OATP1B1; applied concentrations", "result": "did not influence; also recorded: not an inhibitor"},
      {"measurement": "maximum inhibition", "setting": "human OAT1; Table 2", "result": "NIO"},
      {"measurement": "maximum inhibition", "setting": "human OAT1; Table 5", "result": "NIO"},
      {"measurement": "Influence on OAT1-mediated probe substrate accumulation (in words)", "setting": "human OAT1; applied concentrations", "result": "did not influence; also recorded: not an inhibitor"}
    ]}
  ]
}
